Source: ChEMBL document CHEMBL5352402, “Discovery of novel non-nucleoside inhibitors with high potency and selectivity for DNA methyltransferase 3A” (Eur J Med Chem, 2022)
Calls of active or inactive are those of the source. The calls are words filed in the database; no cut-off is given here.

Assays:
[1] = tested on: DU-145; experiment: Antiproliferative activity against human DU-145 cells assessed as inhibition of cell proliferation at 100 uM incubated for 24 to 72 hrs by MTT assay; type: functional, cell-based; settings: time 24-72 hrs, TDE = time-dependent effect
[2] = Cytotoxicity activity against human PBMC cells assessed as inhibition of cell proliferation incubated for 72 hrs by MTT assay; type: toxicity, cell-based
[3] = tested on: A549; experiment: Antiproliferative activity against human A549 cells assessed as inhibition of cell proliferation at 100 uM incubated for 24 to 72 hrs by MTT assay; type: functional, cell-based; settings: time 24-72 hrs, TDE = time-dependent effect
[4] = tested on: K562; experiment: Antiproliferative activity against human K562 cells assessed as inhibition of cell proliferation at 100 uM incubated for 24 to 72 hrs by MTT assay; type: functional, cell-based; settings: time 24-72 hrs, TDE = time-dependent effect
[5] = tested on: HCT-116; experiment: Antiproliferative activity against human HCT-116 cells assessed as inhibition of cell proliferation at 0.1 to 100 uM incubated upto 72 hrs by MTT assay; type: functional, cell-based; settings: dose 0.1-100 µM
[6] = tested on: HCT-116; experiment: Antiproliferative activity against human HCT-116 cells assessed as inhibition of cell proliferation at 100 uM incubated for 24 to 72 hrs by MTT assay; type: functional, cell-based; settings: time 24-72 hrs, TDE = time-dependent effect
[7] = target: DNMT3A2/3L complex (Homo sapiens, UniProt Q9Y6K1); experiment: Inhibition of N-terminal His-tagged human DNMT3A (623 to 912 residues)/N-terminal GST-tagged human DNMT3L (160 to 387 residues) co-expressed in baculovirus infected Sf9 cells assessed as DNA methylation using DNA oligonucleotide IDT-01 as substrate preincubated for 15 mins followed by substrate addition in presence of [3H]-SAM and measured after 4 hrs by radioactive methylation assay
Chain of DNMT3A2/3L complex (Q9Y6K1 whole entry, looked up, the tested form may be a part, one chain of several): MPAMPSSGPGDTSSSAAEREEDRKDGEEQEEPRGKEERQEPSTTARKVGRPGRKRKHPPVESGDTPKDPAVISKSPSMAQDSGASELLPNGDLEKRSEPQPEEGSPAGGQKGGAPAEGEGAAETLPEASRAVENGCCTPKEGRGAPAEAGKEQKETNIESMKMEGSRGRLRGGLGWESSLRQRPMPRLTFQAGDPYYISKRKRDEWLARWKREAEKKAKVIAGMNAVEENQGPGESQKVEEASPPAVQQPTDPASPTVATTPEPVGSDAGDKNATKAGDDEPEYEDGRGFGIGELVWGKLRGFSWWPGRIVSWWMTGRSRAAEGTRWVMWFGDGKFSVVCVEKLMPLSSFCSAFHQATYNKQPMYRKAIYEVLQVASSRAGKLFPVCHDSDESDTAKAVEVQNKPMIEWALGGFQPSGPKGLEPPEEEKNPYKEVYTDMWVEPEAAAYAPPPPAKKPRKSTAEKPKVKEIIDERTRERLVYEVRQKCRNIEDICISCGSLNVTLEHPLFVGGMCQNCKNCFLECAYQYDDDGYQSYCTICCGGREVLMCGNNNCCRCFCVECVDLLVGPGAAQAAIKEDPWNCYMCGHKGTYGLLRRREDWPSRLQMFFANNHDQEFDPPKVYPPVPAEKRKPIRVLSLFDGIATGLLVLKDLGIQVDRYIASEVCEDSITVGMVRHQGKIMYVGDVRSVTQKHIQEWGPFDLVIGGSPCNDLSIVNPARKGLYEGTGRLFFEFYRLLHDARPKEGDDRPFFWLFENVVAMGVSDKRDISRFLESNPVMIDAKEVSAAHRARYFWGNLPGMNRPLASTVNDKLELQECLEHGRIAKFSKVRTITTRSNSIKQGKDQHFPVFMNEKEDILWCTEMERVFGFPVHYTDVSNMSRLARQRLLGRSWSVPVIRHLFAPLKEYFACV

[8] = tested on: U-937; experiment: Antiproliferative activity against human U-937 cells assessed as inhibition of cell proliferation at 0.1 to 100 uM incubated upto 72 hrs by MTT assay; type: functional, cell-based; settings: dose 0.1-100 µM
[9] = target: DNA (cytosine-5)-methyltransferase 1 (Homo sapiens, UniProt P26358); experiment: Inhibition of N-terminal GST-tagged full-length recombinant human DNMT1 assessed as DNA methylation using pdI-pdC DNA as substrate preincubated for 15 mins followed by substrate addition in presence of [3H]-SAM and measured after 150 mins by radioactive methylation assay
Chain of DNA (cytosine-5)-methyltransferase 1 (P26358 whole entry): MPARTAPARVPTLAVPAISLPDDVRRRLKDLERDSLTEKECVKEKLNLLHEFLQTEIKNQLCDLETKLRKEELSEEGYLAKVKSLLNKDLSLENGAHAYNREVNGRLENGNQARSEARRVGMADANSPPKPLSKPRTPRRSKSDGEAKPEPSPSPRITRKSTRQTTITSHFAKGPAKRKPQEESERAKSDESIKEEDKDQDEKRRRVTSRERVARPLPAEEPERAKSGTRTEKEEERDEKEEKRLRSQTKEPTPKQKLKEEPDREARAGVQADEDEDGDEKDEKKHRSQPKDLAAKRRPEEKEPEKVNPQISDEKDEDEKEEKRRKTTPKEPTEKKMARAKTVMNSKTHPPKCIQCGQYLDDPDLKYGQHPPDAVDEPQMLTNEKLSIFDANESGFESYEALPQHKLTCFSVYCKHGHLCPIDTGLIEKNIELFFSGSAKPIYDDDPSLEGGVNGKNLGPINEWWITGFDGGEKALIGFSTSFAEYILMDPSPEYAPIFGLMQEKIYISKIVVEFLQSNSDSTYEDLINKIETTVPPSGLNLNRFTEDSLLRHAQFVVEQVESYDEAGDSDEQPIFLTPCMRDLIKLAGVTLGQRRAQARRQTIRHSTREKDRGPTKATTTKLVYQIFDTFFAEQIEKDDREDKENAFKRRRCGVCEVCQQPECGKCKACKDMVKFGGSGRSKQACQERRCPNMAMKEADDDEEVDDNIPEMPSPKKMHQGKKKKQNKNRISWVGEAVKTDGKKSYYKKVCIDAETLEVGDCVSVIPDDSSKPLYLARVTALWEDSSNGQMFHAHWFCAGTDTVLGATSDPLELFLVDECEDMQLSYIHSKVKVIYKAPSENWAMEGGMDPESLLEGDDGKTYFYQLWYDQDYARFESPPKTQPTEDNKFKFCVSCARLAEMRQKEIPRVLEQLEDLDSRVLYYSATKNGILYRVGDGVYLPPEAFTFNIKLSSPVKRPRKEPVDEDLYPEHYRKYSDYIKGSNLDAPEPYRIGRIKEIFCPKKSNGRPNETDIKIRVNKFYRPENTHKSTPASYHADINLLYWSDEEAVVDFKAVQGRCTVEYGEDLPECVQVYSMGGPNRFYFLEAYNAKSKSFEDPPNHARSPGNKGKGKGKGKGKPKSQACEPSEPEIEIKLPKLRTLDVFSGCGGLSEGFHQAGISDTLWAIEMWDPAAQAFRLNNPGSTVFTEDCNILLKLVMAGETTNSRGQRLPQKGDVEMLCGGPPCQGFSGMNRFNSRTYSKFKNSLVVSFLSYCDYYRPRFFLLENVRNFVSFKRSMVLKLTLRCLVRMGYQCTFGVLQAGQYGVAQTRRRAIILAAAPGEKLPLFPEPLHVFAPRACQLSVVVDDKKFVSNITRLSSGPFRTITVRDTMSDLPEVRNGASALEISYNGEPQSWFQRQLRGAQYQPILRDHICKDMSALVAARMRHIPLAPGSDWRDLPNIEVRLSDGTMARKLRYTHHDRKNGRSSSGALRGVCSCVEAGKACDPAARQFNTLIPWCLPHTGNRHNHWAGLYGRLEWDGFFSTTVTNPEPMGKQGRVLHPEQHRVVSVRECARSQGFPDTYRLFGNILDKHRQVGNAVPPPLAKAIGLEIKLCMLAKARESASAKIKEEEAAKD

[10] = tested on: A549; experiment: cells; settings: Homo sapiens, A549, 72 h
Description: Antiproliferative activity against human A549 cells assessed as inhibition of cell proliferation incubated for 72 hrs by MTT assay

[11] = tested on: THP-1; experiment: Antiproliferative activity against human THP-1 cells assessed as inhibition of cell proliferation incubated for 72 hrs by MTT assay; type: functional, cell-based; settings: THP-1, 72 h
[12] = tested on: K562; experiment: Antiproliferative activity against human K562 cells assessed as inhibition of cell proliferation at 0.1 to 100 uM incubated upto 72 hrs by MTT assay; type: functional, cell-based; settings: dose 0.1-100 µM
[13] = target: T1, DNMT3A2/3L complex (Homo sapiens) (UniProt Q9Y6K1+Q9UJW3); experiment: Inhibition of N-terminal His-tagged human DNMT3A (623 to 912 residues)/N-terminal GST-tagged human DNMT3L (160 to 387 residues) co-expressed in baculovirus infected Sf9 cells assessed as DNA methylation using DNA oligonucleotide IDT-01 as substrate at 100 uM preincubated for 15 mins followed by substrate addition in presence of [3H]-SAM and measured after 4 hrs by radioactive methylation assay; settings: time 255.0 min
T1 sequence (Q9UJW3 whole entry, looked up, the tested form may be a part): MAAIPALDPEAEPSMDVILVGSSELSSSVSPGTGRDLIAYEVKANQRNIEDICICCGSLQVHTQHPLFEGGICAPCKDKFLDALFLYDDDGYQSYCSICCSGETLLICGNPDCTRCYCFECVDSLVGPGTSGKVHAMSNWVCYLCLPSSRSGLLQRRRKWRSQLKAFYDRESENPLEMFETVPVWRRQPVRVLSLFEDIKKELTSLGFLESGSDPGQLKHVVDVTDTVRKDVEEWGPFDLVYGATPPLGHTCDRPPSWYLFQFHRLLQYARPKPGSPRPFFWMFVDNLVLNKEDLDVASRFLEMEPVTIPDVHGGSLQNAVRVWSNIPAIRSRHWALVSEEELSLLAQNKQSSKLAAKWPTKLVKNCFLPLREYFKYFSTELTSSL
T1 sequence (Q9Y6K1 whole entry, looked up, the tested form may be a part): as the sequence (Q9Y6K1 whole entry, looked up, the tested form may be a part, one chain of several) above

[14] = tested on: THP-1; experiment: Antiproliferative activity against human THP-1 cells assessed as inhibition of cell proliferation at 100 uM incubated for 24 to 72 hrs by MTT assay; type: functional, cell-based; settings: time 24-72 hrs, TDE = time-dependent effect
[15] = tested on: U-937; experiment: Antiproliferative activity against human U-937 cells assessed as inhibition of cell proliferation at 100 uM incubated for 24 to 72 hrs by MTT assay; type: functional, cell-based; settings: time 24-72 hrs, TDE = time-dependent effect
[16] = tested on: HCT-116; experiment: cells; settings: Homo sapiens, HCT-116, 72 h
Description: Antiproliferative activity against human HCT-116 cells assessed as inhibition of cell proliferation incubated for 72 hrs by MTT assay

[17] = tested on: DU-145; experiment: Antiproliferative activity against human DU-145 cells assessed as inhibition of cell proliferation incubated for 72 hrs by MTT assay; type: functional, cell-based; settings: DU-145, 72 h
[18] = tested on: A549; experiment: Antiproliferative activity against human A549 cells assessed as inhibition of cell proliferation at 0.1 to 100 uM incubated upto 72 hrs by MTT assay; type: functional, cell-based; settings: dose 0.1-100 µM
[19] = target: DNMT3B (Homo sapiens, UniProt Q9UBC3); experiment: Inhibition of N-terminal His-tagged human DNMT3B (564 to 853 residues)/N-terminal GST-tagged human DNMT3L (160 to 387 residues) co-expressed in baculovirus infected Sf9 cells assessed as DNA methylation using DNA oligonucleotide IDT-01 as substrate preincubated for 15 mins followed by substrate addition in presence of [3H]-SAM and measured after 4 hrs by radioactive methylation assay
[20] = tested on: K562; experiment: Antiproliferative activity against human K562 cells assessed as inhibition of cell proliferation incubated for 72 hrs by MTT assay; type: functional, cell-based; settings: K562, 72 h
[21] = tested on: DU-145; experiment: Antiproliferative activity against human DU-145 cells assessed as inhibition of cell proliferation at 0.1 to 100 uM incubated upto 72 hrs by MTT assay; type: functional, cell-based; settings: dose 0.1-100 µM
[22] = target: T2, Histone-lysine N-methyltransferase EHMT2 (Homo sapiens, UniProt Q96KQ7); experiment: Inhibition of N-terminal GST-tagged human G9a expressed in baculovirus infected Sf9 cells using biotinylated histone H3 peptide as substrate preincubated for 15 mins followed by substrate addition in presence of SAM and measured after 60 mins by AlphaLISA assay
T2 sequence (Q96KQ7 whole entry): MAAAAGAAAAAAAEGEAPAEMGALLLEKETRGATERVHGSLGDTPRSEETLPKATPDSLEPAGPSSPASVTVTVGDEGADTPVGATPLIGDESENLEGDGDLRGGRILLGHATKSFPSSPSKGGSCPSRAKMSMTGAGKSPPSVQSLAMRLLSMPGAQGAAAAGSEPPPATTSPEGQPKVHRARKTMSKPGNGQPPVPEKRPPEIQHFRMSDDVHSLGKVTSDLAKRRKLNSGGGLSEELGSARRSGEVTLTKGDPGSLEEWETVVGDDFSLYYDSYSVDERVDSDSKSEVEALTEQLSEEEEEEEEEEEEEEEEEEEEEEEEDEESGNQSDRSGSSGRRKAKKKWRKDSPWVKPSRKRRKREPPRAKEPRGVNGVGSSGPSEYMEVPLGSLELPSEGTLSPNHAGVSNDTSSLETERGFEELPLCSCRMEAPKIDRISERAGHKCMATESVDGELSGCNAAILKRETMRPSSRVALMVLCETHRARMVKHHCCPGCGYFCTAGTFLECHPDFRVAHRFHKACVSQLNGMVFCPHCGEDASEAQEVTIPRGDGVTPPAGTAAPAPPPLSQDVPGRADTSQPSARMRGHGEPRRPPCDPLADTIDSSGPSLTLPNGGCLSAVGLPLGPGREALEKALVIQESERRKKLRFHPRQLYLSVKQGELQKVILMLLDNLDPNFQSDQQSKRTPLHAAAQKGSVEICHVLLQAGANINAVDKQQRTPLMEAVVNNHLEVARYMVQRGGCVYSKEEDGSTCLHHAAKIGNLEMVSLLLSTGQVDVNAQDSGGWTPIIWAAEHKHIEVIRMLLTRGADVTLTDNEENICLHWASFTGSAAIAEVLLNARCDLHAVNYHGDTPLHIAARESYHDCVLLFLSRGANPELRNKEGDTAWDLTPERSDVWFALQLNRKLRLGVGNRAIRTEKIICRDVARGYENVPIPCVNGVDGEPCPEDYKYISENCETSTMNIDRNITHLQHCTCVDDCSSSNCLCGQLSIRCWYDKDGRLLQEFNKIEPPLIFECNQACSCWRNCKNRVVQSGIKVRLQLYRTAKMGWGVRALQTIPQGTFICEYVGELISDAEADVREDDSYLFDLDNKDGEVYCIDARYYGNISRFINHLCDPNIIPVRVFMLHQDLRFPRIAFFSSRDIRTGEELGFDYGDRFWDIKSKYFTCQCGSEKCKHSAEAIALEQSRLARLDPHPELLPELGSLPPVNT

[23] = target: T1, DNMT3A2/3L complex (Homo sapiens); experiment: Inhibition of N-terminal His-tagged human DNMT3A (623 to 912 residues)/N-terminal GST-tagged human DNMT3L (160 to 387 residues) co-expressed in baculovirus infected Sf9 cells assessed as DNA methylation using DNA oligonucleotide IDT-01 as substrate at 10 uM preincubated for 15 mins followed by substrate addition in presence of [3H]-SAM and measured after 4 hrs by radioactive methylation assay; settings: time 255.0 min
[24] = tested on: THP-1; experiment: Antiproliferative activity against human THP-1 cells assessed as inhibition of cell proliferation at 0.1 to 100 uM incubated upto 72 hrs by MTT assay; type: functional, cell-based; settings: dose 0.1-100 µM
[25] = tested on: U-937; experiment: cells; settings: Homo sapiens, U-937, 72 h
Description: Antiproliferative activity against human U-937 cells assessed as inhibition of cell proliferation incubated for 72 hrs by MTT assay

[26] = target: DNA (cytosine-5)-methyltransferase 3A (Homo sapiens) (UniProt Q9Y6K1); experiment: Inhibition of DNMT3A in human HCT-116 cells assessed as increase in p53 protein level at 1 uM incubated for 72 hrs by Western blot analysis; type: cell-based
Chain of DNA (cytosine-5)-methyltransferase 3A (Homo sapiens) (Q9Y6K1 whole entry, looked up): as the sequence (Q9Y6K1 whole entry, looked up, the tested form may be a part, one chain of several) above

[27] = target: DNA (cytosine-5)-methyltransferase 3A (Homo sapiens) (UniProt Q9Y6K1); experiment: Inhibition of DNMT3A in human HCT-116 cells assessed as downregulation of DNMT3A protein level at 1 uM incubated for 72 hrs by Western blot analysis; type: cell-based

SMILES	Activity [1]	IC50 at 72 h [2] [µM]	Activity [3]	Activity [4]	Activity [5]	Activity [6]	IC50 [7] [µM]	Activity [8]	IC50 [9] [µM]	IC50 [10] [µM]	IC50 [11] [µM]	Activity [12]	inhibition [13] [%]	Activity [14]	Activity [15]	IC50 [16] [µM]	IC50 [17] [µM]	IC50 [20] [µM]	inhibition [23] [%]	IC50 [25] [µM]	other results
Cc1oc2ncn(CCCN3CCCCC3)c(=O)c2c1C(=O)Nc1ccc(S(N)(=O)=O)nc1	Tde	144	Tde	Tde	Dose-Dependent Effect	Tde	1.3	Dose-Dependent Effect	15.9	8.5	4.2	Dose-Dependent Effect	89.8	Tde	Tde	1.6	4.1	5.4	66	3.5	Activity [18]: Dose-Dependent Effect; IC50 [19]: 64.7 µM; Activity [21]: Dose-Dependent Effect; IC50 [22]: 14.9 µM; Activity [24]: Dose-Dependent Effect
Cc1sc2ncn(CCN3CCOCC3)c(=O)c2c1C(=O)Nc1ccc(S(N)(=O)=O)nc1							> 100						40.4						8.3		
Cc1oc2ncn(CCCN3CCCC3)c(=O)c2c1C(=O)Nc1ccc(S(N)(=O)=O)nc1	Tde	161	Tde	Tde	Dose-Dependent Effect	Tde	1.8	Dose-Dependent Effect	9.6	15.7	3.3	Dose-Dependent Effect	94.1	Tde	Tde	2.1	2.8	6.5	69.6	4.2	Activity [18]: Dose-Dependent Effect; IC50 [19]: 120 µM; Activity [21]: Dose-Dependent Effect; IC50 [22]: 308 µM; Activity [24]: Dose-Dependent Effect
Cc1oc2ncn(CCN3CCCCC3)c(=O)c2c1C(=O)Nc1ccc(S(N)(=O)=O)nc1	Tde	137	Tde	Tde	Dose-Dependent Effect	Tde		Dose-Dependent Effect	51.2	11.1	2.2	Dose-Dependent Effect	77.7	Tde	Tde	0.5	5.3	6.1	70.5	1.8	Activity [18]: Dose-Dependent Effect; IC50 [19]: > 100 µM; Activity [21]: Dose-Dependent Effect; IC50 [22]: > 500 µM; p53 protein level increase (active/not active) [26]: Active; Activity [24]: Dose-Dependent Effect
Cc1oc2ncn(Cc3cccnc3)c(=O)c2c1C(=O)Nc1ccc(S(N)(=O)=O)nc1							> 100						48						11.3		
Cc1cc(Nc2ccc(NC(=O)c3ccc(Nc4ccnc5ccccc45)cc3)cc2)nc(N)n1		2								8.9	0.7					0.9	3.4	0.6		0.7	inhibition [27]: inactive; p53 protein level increase (active/not active) [26]: inactive
